{
  "source": "PubChem BioAssay (NCI)",
  "assay_in_all_cases": "DTP human tumour cell line panel, 384-well format",
  "key": {"BT-549 breast": {"tested_on": "BT-549 breast"}, "IGROV1 ovarian": {"tested_on": "IGROV1 ovarian"}, "KM12 colon": {"tested_on": "KM12 colon"}, "MDA-MB-231 breast": {"tested_on": "MDA-MB-231 breast"}, "MDA-MB-468 breast": {"tested_on": "MDA-MB-468 breast"}, "NCI-H23 lung": {"tested_on": "NCI-H23 lung"}, "NCI-H460 NSCLC": {"tested_on": "NCI-H460 NSCLC"}, "NCI-H522 lung": {"tested_on": "NCI-H522 lung"}, "SF-539 CNS": {"tested_on": "SF-539 CNS"}, "SK-MEL-28 melanoma": {"tested_on": "SK-MEL-28 melanoma"}, "SNB-19 CNS": {"tested_on": "SNB-19 CNS"}, "U251 glioblastoma": {"tested_on": "U251 glioblastoma"}, "UACC-62 melanoma": {"tested_on": "UACC-62 melanoma"}},
  "note": "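GI50 marks 50% less growth. Definition used: TGI = concentration required for complete inhibition of growth.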",
  "data": [
    {"compound": "Nc1nc(OCc2cc(Br)cs2)c2[nH]cnc2n1", "values": [
      {"measurement": "GI50", "setting": "BT-549 breast", "result": 21.8, "unit": "µM"},
      {"measurement": "TGI", "setting": "BT-549 breast", "result": 53.5, "unit": "µM"},
      {"measurement": "GI50", "setting": "IGROV1 ovarian", "result": 30.7, "unit": "µM"},
      {"measurement": "TGI", "setting": "IGROV1 ovarian", "result": "> 100", "unit": "µM"},
      {"measurement": "GI50", "setting": "KM12 colon", "result": 87.2, "unit": "µM"},
      {"measurement": "TGI", "setting": "KM12 colon", "result": "> 100", "unit": "µM"},
      {"measurement": "GI50", "setting": "MDA-MB-231 breast", "result": 40.7, "unit": "µM"},
      {"measurement": "TGI", "setting": "MDA-MB-231 breast", "result": "> 100", "unit": "µM"},
      {"measurement": "GI50", "setting": "MDA-MB-468 breast", "result": 16.9, "unit": "µM"},
      {"measurement": "TGI", "setting": "MDA-MB-468 breast", "result": 47.5, "unit": "µM"},
      {"measurement": "GI50", "setting": "NCI-H23 lung", "result": 42.4, "unit": "µM"},
      {"measurement": "TGI", "setting": "NCI-H23 lung", "result": "> 100", "unit": "µM"},
      {"measurement": "GI50", "setting": "NCI-H460 NSCLC", "result": 40.3, "unit": "µM"},
      {"measurement": "TGI", "setting": "NCI-H460 NSCLC", "result": "> 100", "unit": "µM"},
      {"measurement": "GI50", "setting": "NCI-H522 lung", "result": 27.6, "unit": "µM"},
      {"measurement": "TGI", "setting": "NCI-H522 lung", "result": "> 77", "unit": "µM"},
      {"measurement": "GI50", "setting": "SF-539 CNS", "result": 44.2, "unit": "µM"},
      {"measurement": "TGI", "setting": "SF-539 CNS", "result": "> 100", "unit": "µM"},
      {"measurement": "GI50", "setting": "SK-MEL-28 melanoma", "result": "> 100", "unit": "µM"},
      {"measurement": "TGI", "setting": "SK-MEL-28 melanoma", "result": "> 100", "unit": "µM"},
      {"measurement": "GI50", "setting": "SNB-19 CNS", "result": 70, "unit": "µM"},
      {"measurement": "TGI", "setting": "SNB-19 CNS", "result": "> 100", "unit": "µM"},
      {"measurement": "GI50", "setting": "U251 glioblastoma", "result": 31.3, "unit": "µM"},
      {"measurement": "TGI", "setting": "U251 glioblastoma", "result": "> 95.1", "unit": "µM"},
      {"measurement": "GI50", "setting": "UACC-62 melanoma", "result": 31.2, "unit": "µM"},
      {"measurement": "TGI", "setting": "UACC-62 melanoma", "result": "> 100", "unit": "µM"}
    ]}
  ]
}
